Assay results from patent US20240150293A1, “SPIROCYCLOHEXANE DERIVATIVES, PHARMACEUTICAL COMPOSITIONS CONTAINING THEM AND THEIR USES AS ANTI-APOPTOTIC INHIBITORS” (LES LABORATOIRES SERVIER, priority 2021, published 2024).

What follows are molecules tested against Mcl-1 protein (UniProtKB Q07820) (Homo sapiens (Human), UniProt Q07820) (assay: Inhibition of Mcl-1 by the fluorescence polarisation assay (Example A, Method A)). Conditions: fluorescence polarization assay.
Format: binding
Description: The relative binding potency of each compound was determined via Fluorescence Polarisation (FP). The method utilised a Fluorescein labelled ligand (Fluorescein-βAla-Ahx-A-REIGAQLRRMADDLNAQY-OH; MW 2,765) which binds to the Mcl-1 protein (such that Mcl-1 corresponds to the UniProtKB® primary accession number: Q07820) leading to an increased anisotropy measured in milli-polarisation (mP) units using a reader. The addition of a compound which binds competitively to the same site as the ligand will result in a greater proportion of unbound ligand in the system indicated by a decrease in mP units.
An 11 point serial dilution of each compound was prepared in DMSO and 2 μl transferred into flat bottomed, low binding, 384-well plate (final DMSO concentration 5%). 38 μl of buffer containing the Fluorescein labelled ligand (final concentration 1 nM) and Mcl-1 protein (final concentration 5 nM) was then added. Buffer components were 10 mM 4-(2-hydroxyethyl)-1-piperazineethanesulfonic acid [HEPES], 150 mM NaCl, pH 7.4 with the addition of 0.05% Tween 20.
Assay plates were incubated for 2 hours at room temperature before FP was measured on a […] Synergy Neo reader ([…], Cut off 510 nm) and mP units calculated. The binding of increasing doses of test compound was expressed as a percentage reduction in mP compared to a window established between ‘5% DMSO only’ and ‘100% inhibition’ controls. 11-point dose response curves were plotted with XL-Fit software using a 4-Parameter Logistic Model (Sigmoidal Dose-Response Model) and the inhibitory concentrations that gave a 50% reduction in mP (IC50) were determined. The Ki values were determined from the IC50 values according to Cer et al, Nucleic Acids Res, 2009, 37 (WebServer issue): W441-W445. Inhibition constants (Ki) are determined from complete binding inhibition curves (cKi) or from estimated from incomplete binding inhibition curves (eKi) in most cases due to low activity.

Mcl-1 protein, sequence (Q07820 whole entry): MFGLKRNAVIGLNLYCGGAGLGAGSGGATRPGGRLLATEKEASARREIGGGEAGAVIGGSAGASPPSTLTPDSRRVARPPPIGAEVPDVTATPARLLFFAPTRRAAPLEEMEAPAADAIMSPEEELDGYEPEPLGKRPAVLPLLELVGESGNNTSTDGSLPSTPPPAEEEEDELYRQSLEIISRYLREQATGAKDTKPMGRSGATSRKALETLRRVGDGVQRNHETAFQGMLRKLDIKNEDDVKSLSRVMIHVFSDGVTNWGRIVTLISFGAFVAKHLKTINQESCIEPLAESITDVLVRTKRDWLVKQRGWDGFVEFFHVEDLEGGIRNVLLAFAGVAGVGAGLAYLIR

| Structure (SMILES) | Ki |
| --- | --- |
| O=C(O)C1(Nc2cccc(Br)c2)CCC2(CC1)c1ccccc1CC2CCc1ccccc1 (racemic) [Example 201, 4-(3-bromoanilino)-2′-(2-phenylethyl)-2′,3′-dihydrospiro[cyclohexane-1,1′-indene]-4-carboxylic acid] | 1.53 µM |
| COc1ccc(C2=Cc3ccccc3[C@]23CC[C@@](Nc2cccc(Cl)c2)(C(=O)O)CC3)cc1Cl [Example 227, (1s,4s)-4-(3-chloroanilino)-2′-(3-chloro-4-methoxyphenyl)spiro[cyclohexane-1,1′-indene]-4-carboxylic acid] | 1.19 µM |
| CCOc1cccc(C2=Cc3ccccc3[C@]23CC[C@@](Nc2cccc(Cl)c2)(C(=O)O)CC3)c1 [Example 313, (1s,4s)-4-(3-chloroanilino)-2′-(3-ethoxyphenyl)spiro[cyclohexane-1,1′-indene]-4-carboxylic acid] | 0.385 µM |
| O=C(O)[C@]1(Nc2cccc(Cl)c2)CC[C@@]2(CC1)c1ccccc1C[C@H]2c1ccc(-c2ccccc2)o1 [Example 356, (1r,2′R,4R)-4-(3-chloroanilino)-2′-(5-phenylfuran-2-yl)-2′,3′-dihydrospiro[cyclohexane-1,1′-indene]-4-carboxylic acid] | 0.476 µM |
| O=C(O)[C@]1(Nc2cccc(Cl)c2)CC[C@@]2(CC1)c1ccccc1CC2CCCOc1ccccc1 (stereo partly drawn) [Example 424, (1r,4r)-4-(3-chloroanilino)-2′-(3-phenoxypropyl)-2′,3′-dihydrospiro[cyclohexane-1,1′-indene]-4-carboxylic acid] | 0.184 µM |
| O=C(O)[C@]1(Nc2cccc(Cl)c2)CC[C@@]2(CC1)c1ccccc1C[C@@H]2c1cc2ccccc2o1 [Example 338, (1r,2′S,4S)-2′-(1-benzofuran-2-yl)-4-(3-chloroanilino)-2′,3′-dihydrospiro[cyclohexane-1,1′-indene]-4-carboxylic acid] | 5.69 µM |
| O=C(O)[C@]1(Nc2cccc(Cl)c2)CC[C@@]2(CC1)c1ccccc1CC2[C@H]1C[C@@H]1COc1cccnc1 (single isomer, unassigned) [Example 113, (1r,4r)-4-(3-chloroanilino)-2′-[(1R*,2S*)-2-{[(pyridin-3-yl)oxy]methyl}cyclopropyl]-2′,3′-dihydrospiro[cyclohexane-1,1′-indene]-4-carboxylic acid] | 22.3 µM |
| CN1c2ccc(CCc3ccccc3)cc2[C@]2(CC[C@](Nc3cccc(Br)c3)(C(=O)O)CC2)C1=O [Example 11, (1r,4r)-4-(3-bromoanilino)-1′-methyl-2′-oxo-5′-(2-phenylethyl)-1′,2′-dihydrospiro[cyclohexane-1,3′-indole]-4-carboxylic acid] | 6.43 µM |
| O=C(O)[C@]1(Nc2cccc(Cl)c2)CC[C@]2(CC1)C(/C=C/c1ccc(-c3ccccc3)cc1)=Cc1ccccc12 [Example 158, (1r,4r)-2′-[(E)-2-([1,1′-biphenyl]-4-yl)ethenyl]-4-(3-chloroanilino)spiro[cyclohexane-1,1′-indene]-4-carboxylic acid] | 0.311 µM |
| COc1ccc(C2Cc3ccccc3[C@]23CC[C@@](Nc2cccc(Cl)c2)(C(=O)O)CC3)cc1C (single isomer, unassigned) [Example 242, (1r,4r)-4-(3-chloroanilino)-2′-(4-methoxy-3-methylphenyl)-2′,3′-dihydrospiro[cyclohexane-1,1′-indene]-4-carboxylic acid] | 1.21 µM |
| CCOCCCC1Cc2ccccc2[C@]12CC[C@@](Nc1cccc(Cl)c1)(C(=O)O)CC2 (stereo partly drawn) [Example 156, (1r,4r)-4-(3-chloroanilino)-2′-(3-ethoxypropyl)-2′,3′-dihydrospiro[cyclohexane-1,1′-indene]-4-carboxylic acid] | 0.621 µM |
| O=C(O)[C@]1(Nc2cc(Cl)cc(Cl)c2)CC[C@@]2(CCCc3ccccc32)CC1 [Example 120, (1r,4s)-4-[(3,5-dichlorophenyl)amino]-3′,4′-dihydro-2′H-spiro[cyclohexane-1,1′-naphthalene]-4-carboxylic acid] | 19.3 µM |
| O=C(O)[C@]1(Nc2cccc(Cl)c2)CC[C@@]2(CC1)c1ccccc1CC2c1ccc(Cl)cc1 (single isomer, unassigned) [Example 319, (1r,4r)-4-(3-chloroanilino)-2′-(4-chlorophenyl)-2′,3′-dihydrospiro[cyclohexane-1,1′-indene]-4-carboxylic acid] | 0.906 µM |
| CCC1=C(C)[C@]2(CC[C@](Nc3cccc(Cl)c3)(C(=O)O)CC2)c2ccccc21 [Example 205, (1r,4r)-4-(3-chloroanilino)-3′-ethyl-2′-methylspiro[cyclohexane-1,1′-indene]-4-carboxylic acid] | 1.71 µM |
| COc1ccc(Cl)c(C2Cc3ccccc3[C@]23CC[C@@](Nc2ccccc2)(C(=O)O)CC3)c1 (single isomer, unassigned) [Example 260, (1r,4r)-4-anilino-2′-(2-chloro-5-methoxyphenyl)-2′,3′-dihydrospiro[cyclohexane-1,1′-indene]-4-carboxylic acid] | 90.1 µM |
| O=C(O)[C@]1(Nc2cccc(Cl)c2)CC[C@]2(CC1)C(c1cc3cc(-c4ccncc4)ccc3o1)=Cc1ccccc12 [Example 375, (1s,4s)-4-(3-chloroanilino)-2′-[5-(pyridin-4-yl)-1-benzofuran-2-yl]spiro[cyclohexane-1,1′-indene]-4-carboxylic acid] | 4.79 µM |
| COCC(COC)CC1=Cc2ccccc2[C@]12CC[C@@](Nc1cccc(Cl)c1)(C(=O)O)CC2 [Example 493, (1r,4r)-4-(3-chloroanilino)-2′-[3-methoxy-2-(methoxymethyl)propyl]spiro[cyclohexane-1,1′-indene]-4-carboxylic acid] | 1.78 µM |
| COc1cccc(C2Cc3ccccc3[C@]23CC[C@@](Nc2cccc(Cl)c2)(C(=O)O)CC3)c1 (single isomer, unassigned) [Example 272, (1r,4r)-4-(3-chloroanilino)-2′-(3-methoxyphenyl)-2′,3′-dihydrospiro[cyclohexane-1,1′-indene]-4-carboxylic acid] | 0.127 µM |

Further molecules by falling Ki, results first:

| Ki | Structure (SMILES) |
| --- | --- |
| 27 µM | O=C(O)[C@]1(Nc2cccc(Cl)c2)CC[C@@]2(CC1)c1ccccc1C[C@@H]2C1CCC1 [Example 101, (1r,2′R,4R)-4-(3-chloroanilino)-2′-cyclobutyl-2′,3′-dihydrospiro[cyclohexane-1,1′-indene]-4-carboxylic acid] |
| 8.72 µM | O=C(O)[C@]1(Nc2cccc(Cl)c2)CC[C@@]2(CC1)c1ccccc1CC2c1ccc(OCc2ccccc2)cc1 (single isomer, unassigned) [Example 353, (1r,4r)-2′-[4-(benzyloxy)phenyl]-4-(3-chloroanilino)-2′,3′-dihydrospiro[cyclohexane-1,1′-indene]-4-carboxylic acid] |
| 1.29 µM | CC1=Cc2cc(Cl)ccc2C12CCC(Nc1cccc(Br)c1)(C(=O)O)CC2 (stereo not drawn) [Example 124, 4-(3-bromoanilino)-5′-chloro-2′-methylspiro[cyclohexane-1,1′-indene]-4-carboxylic acid] |
| 1.14 µM | O=C(O)[C@]1(Nc2cccc(Cl)c2)CC[C@@]2(CC1)c1ccccc1CC2[C@H]1C[C@@H]1COc1cccnc1 (single isomer, unassigned) [Example 115, (1r,4r)-4-(3-chloroanilino)-2′-[(1R*,2S*)-2-{[(pyridin-3-yl)oxy]methyl}cyclopropyl]-2′,3′-dihydrospiro[cyclohexane-1,1′-indene]-4-carboxylic acid] |
| 1.11 µM | O=C(O)[C@]1(Nc2cccc(Cl)c2)CC[C@]2(CC1)C(c1ccc(Cl)cc1)=Cc1ccccc12 [Example 298, (1s,4s)-4-(3-chloroanilino)-2′-(4-chlorophenyl)spiro[cyclohexane-1,1′-indene]-4-carboxylic acid] |
| 1.08 µM | CC1N(C)c2ccccc2[C@]12CC[C@](Nc1cccc(Br)c1)(C(=O)O)CC2 (stereo partly drawn) [Example 23, (1r,4r)-4-(3-bromoanilino)-1′,2′-dimethyl-1′,2′-dihydrospiro[cyclohexane-1,3′-indole]-4-carboxylic acid] |
| 0.41 µM | COc1cccc(C2=Cc3ccccc3[C@]23CC[C@@](Nc2cccc(Cl)c2)(C(=O)O)CC3)c1C [Example 299, (1s,4s)-4-(3-chloroanilino)-2′-(3-methoxy-2-methylphenyl)spiro[cyclohexane-1,1′-indene]-4-carboxylic acid] |
| 0.381 µM | COc1cccc([C@@H]2Cc3ccccc3[C@]23CC[C@@](Nc2cccc(Br)c2)(C(=O)O)CC3)c1 [Example 219, (1r,2′S,4S)-4-(3-bromoanilino)-2′-(3-methoxyphenyl)-2′,3′-dihydrospiro[cyclohexane-1,1′-indene]-4-carboxylic acid] |
| 0.271 µM | O=C(O)[C@]1(Nc2cccc(Cl)c2)CC[C@@]2(CC1)c1ccccc1CC2CCOc1ccnc(F)c1 (stereo partly drawn) [Example 187, (1r,4r)-4-(3-chloroanilino)-2′-{2-[(2-fluoropyridin-4-yl)oxy]ethyl}-2′,3′-dihydrospiro[cyclohexane-1,1′-indene]-4-carboxylic acid] |
